We go through 1 compound from patent publication US20110135772A1, “SKIN CARE AGENT AND COMPOSITIONS THEREOF” (priority 2009, published 2011).

The target in this experiment is elastase (Sus scrofa, UniProt P00772). In words: Elastase inhibition assay (succinyl-L-alanyl-L-alanyl-L-alanyl-p-nitroanilide hydrolysis, 410 nm). Format: biochemical. On the procedure: 300 μl (0.6 mg) of succinyl-L-alanyl-L-alanyl-L-alanyl-p-nitroanilide (the enzyme substrate), 1200 μl of buffer and varying amounts of the elastase inhibitor under testing are incubated at 37° C. for 20 minutes. The hydrolysis is measured by the spectrophotometric measurement of the release of p-nitroaniline at a wavelength of 410 nm.
The anti-aging activity of the individual molecules along with different combinations were studied and the results mentioned in Table.2

elastase, sequence (P00772 27-266): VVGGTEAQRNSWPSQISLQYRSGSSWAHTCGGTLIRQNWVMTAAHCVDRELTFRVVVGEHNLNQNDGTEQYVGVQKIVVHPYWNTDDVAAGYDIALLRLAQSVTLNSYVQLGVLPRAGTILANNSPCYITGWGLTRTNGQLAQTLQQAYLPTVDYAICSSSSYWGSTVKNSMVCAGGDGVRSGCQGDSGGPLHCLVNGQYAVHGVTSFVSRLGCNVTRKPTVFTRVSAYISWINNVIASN

For `O=C(OC[C@H]1O[C@@H](OC(=O)c2cc(O)c(O)c(O)c2)[C@H](OC(=O)c2cc(O)c(O)c(O)c2)[C@@H](OC(=O)c2cc(O)c(O)c(O)c2)[C@@H]1OC(=O)c1cc(O)c(O)c(O)c1)c1cc(O)c(O)c(O)c1` [Formula 3, pentagalloyl glucose], the Inhibition (at 70 μg/ml) is on record as 56.6% at 70 μg/ml. For the setting “synergistic studies, ratio Pentagalloyl glucose:Methyl gallate, concentration not given”, the “% Inhibition” value is 49%.

Usually % Inhibition stands for the percentage by which the read-out fell short of the control.
